Measurements: patent publication US12409174B2, “Combination of zibotentan and dapagliflozin for the treatment of endothelin related diseases” (priority 2020, dated 2025)

Assays:
[1] = system: male Wistar rats fed a 4% salt diet; assay: Effect on urinary volume, glucose, Na, K, urea and creatinine in the urine, Experiment 2; assay type: in vivo; settings: Exp 2; for Urine Creatinine / Urine K / Urine Na / Urine Urea / Urine volume: 24 hr urine between third and fourth dose; for Urine glucose excretion: FIG. 8A
Description: (§1) In the second experiment (Experiment 2), the effect of zibotentan and dapagliflozin (alone or in combination) on Hct concentration and Hb was determined. Seventy-two animals were randomized on BW and Hct concentration, 2 to 3 days prior to administration of study drugs into the following groups; 1) Vehicle, 2) Zibotentan (30 mg/kg), 3) Zibotentan (100 mg/kg), 4) Dapagliflozin (3 mg/kg), 5) Zibotentan (30 mg/kg)+Dapagliflozin (3 mg/kg) and 6) Zibotentan (100 mg/kg)+Dapagliflozin (3 mg/kg). For practical reasons, the study was conducted in two consecutive slots with 36 animals (6/group) in each slot. Compounds were administered p.o. QD for seven days. Blood samples for bioanalysis were collected at 4 and 24 hr after the first dose and 24 hr after the final dose for Hct concentration and Hb analysis on day three and seven as described for exp.1. Twenty-four hour urine was collected between the third and fourth dose. 24 hr food and water intake was measured between day 2-3 and between day 6-7. With two animals per cage, food intake and water intake per animal in a cage was assessed by dividing the food intake and water intake of a cage by two.
(§2) Plasma and Urine Albumin, Creatinine, Glucose, Urea, Potassium and Sodium levels were analyzed using an ABX Pentra 400 instrument (Horiba Medical, Irvine, California, USA) according to the manufacturers protocol.
(§3) The data for each feature measured was checked for a normal distribution and where appropriate a log transformation was applied to data with a non-normal distribution using R. Since the data were grouped by one factor Zibotentin doses or combined therapy, a one-way ANOVA was used to analyse traits measured at a single time point (GraphPad version 8 or R statistics package emmeans) and a linear mixed effects model (nlme package) in R was used to analyse multiple measures data for body weight. The differences between groups were tested using either a Dunnett test (emmeans package in R or GraphPad v8) when comparing treated groups to the vehicle group or a Tukey comparison (emmeans package in R or Graphpad v8.) for specific pairwise comparisons of treated groups. All model assumptions were checked using the model diagnostic plots in R statistics. Results are expressed as the Mean±standard error of the Mean (SEM) for pharmacodynamic parameters and Mean±standard deviation (SD) for compound concentration in blood and urine. Significance was set at p<0.05.

[2] = Effect of zibotentan, dapagliflozin and the combination on body weight, Experiment 2; settings: Exp 2; for Prevention of BW gain compared to vehicle: administration period 7 days, FIG. 7
Description: as §1, §3
To assess the effect of the combined therapy on weight loss, body weight was measured every day and was compared using a linear mixed effects model.

[3] = Zibotentan and dapagliflozin blood concentrations, Experiment 2; settings: male, Wistar, rat, Exp 2; for concentration at 4 h: 4 hr post first dose
Description: as §1
The blood and urine concentrations of zibotentan and dapagliflozin were determined by a bioanalytical method using liquid chromatography with mass spectrometric detection (LC-MS/MS).
Whole blood samples for bioanalysis of dapagliflozin and zibotentan followed the same procedure. A volume of 20 μL whole blood was precipitated with 150 μL acetonitrile containing internal standard and quickly vortexed, followed by a 20 min centrifugation at 3220 g and 4° C. The supernatant was transferred to a fresh deep well plate and diluted 1:1 with water prior to LC-MS analysis. Matrix matched calibration samples and blanks were treated in the same way as study samples. Zibotentan samples were further diluted twice and three times at a 1:10 ratio with 33% acetonitrile, to ensure all diluted samples were detectible within the calibration range.
Sample concentrations were determined against matrix-spiked calibration standards over a range of 0.010 μM-10.0 μM for dapagliflozin and 0.75 μM-376 μM for zibotentan, applying weighted linear regression (1/X^2) using Waters TargetLynx software version XS V4.2 SCN986.
Samples were analyzed by using reversed-phase high-pressure liquid chromatography with rapid gradient elution. Compounds were detected with Waters Xevo TQ-S triple quadrupole mass spectrometer (Waters Corporation, Milford, MA, USA). The chromatographic separation was performed by an ACQUITY BEH C18 1.8 μM, 2.1×50 mm column at a temperature of 40° C. Mobile phase A was 2% acetonitrile and 0.2% formic acid in water (A), and mobile phase B was 0.2% formic acid in acetonitrile (B). Separation was achieved using the following elution gradient: 0 min to 1.5 min, 4% B ramping up to 95% B; 1.5 min to 2.3 min, kept at 95% B; 2.3 min to 2.4 min, 95% B to 4% B and kept at 4% B until 2.7 min. The flow rate was 0.7 mL/min.
Samples were analyzed by reversed-phase high-pressure liquid chromatography with rapid gradient elution. Compounds were detected with Waters Xevo TQ-S triple quadrupole mass spectrometer (Waters Corporation, Milford, MA, USA). Mobile phase A was 1M ammonium acetate/acetonitrile/water (0.1/2/97.5, v/v/v), and mobile phase B was 1M ammonium acetate/acetonitrile (0.1/99.5, v/v). Separation was performed by an ACQUITY BEH C18 1.8 μM, 2.1×50 mm column from Waters using the following gradient: 0 min to 2.5 min, 4% B ramping to 60% B; 2.5 min to 2.9 min, 60% B to 95% B; 2.9 min to 3.4 min kept at 95% B, and from 3.4 to 3.5 min mobile phase B was returned to 4% B and kept at 4% B until 4 min. The flow rate was 0.6 mL/min and column temperature was 40° C.

[4] = system: male Wistar rats fed a 4% salt diet; assay: Effect of zibotentan and dapagliflozin on kidney and heart weight, Experiment 2; assay type: in vivo; settings: Exp 2
Description: as §1, §3

[5] = system: male Wistar rats fed a 4% salt diet; assay: Effect on plasma Na, K, glucose, urea and creatinine concentration, Experiment 2; settings: Exp 2
Description: as §1, §2, §3

[6] = system: male Wistar rats fed a 4% salt diet; assay: 24 hr water and food intake, Experiment 2; assay type: in vivo; settings: Exp 2; FIG. 8B and FIG. 8C
Description: as §1

SMILES: CCOc1ccc(Cc2cc([C@@H]3O[C@H](CO)[C@@H](O)[C@H](O)[C@H]3O)ccc2Cl)cc1 [Dapa, (1S)-1,5-anhydro-1-{4-chloro-3-[(4-ethoxyphenyl)methyl]phenyl}-D-glucitol]
- 24-hour urine volume and urea excretion compared to vehicle [1]: increased
- Urine Na, K and creatinine compared to vehicle [1]: No change
- Urine Creatinine ([1]; Dapa 3 mg/kg p.o. QD): 76.42 µmol
- Urine K ([1]; Dapa 3 mg/kg p.o. QD): 1.40 mmol
- Urine Na ([1]; Dapa 3 mg/kg p.o. QD): 12.60 mmol
- Urine Urea ([1]; Dapa 3 mg/kg p.o. QD): 7.43 mmol
- Urine volume ([1]; Dapa 3 mg/kg p.o. QD): 43.13 mL
- Urine glucose excretion [1]: significantly increased
- Changes in body weight over the entire study, Difference ([2]; Dapa 3 mg/kg vs Vehicle): −0.03
- Prevention of BW gain compared to vehicle [2]: prevented this BW gain
- concentration at 24 h ([3]; whole blood, oral, 3 mg/kg, Dapagliflozin blood concentration, Dapa 3 mg/kg p.o. QD 7 days, 24 hr post last dose): 0.048 µM
- concentration at 4 h ([3]; whole blood, oral, 3 mg/kg, Dapagliflozin blood concentration, Dapa 3 mg/kg p.o. QD): 1.94 µM
- concentration at 24 h ([3]; whole blood, oral, 3 mg/kg, Dapagliflozin blood concentration, Dapa 3 mg/kg p.o. QD, 24 hr post first dose): 0.086 µM
- Heart weight ([4]; Dapa 3 mg/kg p.o. QD 7 days): 0.85 g
- Heart/tibia length ([4]; Dapa 3 mg/kg p.o. QD 7 days): 22.08 mg/mm
- Kidney weight ([4]; Dapa 3 mg/kg p.o. QD 7 days): 2.01 g
- Kidney/tibia length ([4]; Dapa 3 mg/kg p.o. QD 7 days): 51.96 mg/mm
- Plasma Na, K, glucose, urea concentrations compared to vehicle [5]: unaltered
- Plasma Creatinine ([5]; Dapa 3 mg/kg p.o. QD 7 days): 14.62 µM
- Plasma Glucose ([5]; Dapa 3 mg/kg p.o. QD 7 days): 8.98 mmol/L
- Plasma K ([5]; Dapa 3 mg/kg p.o. QD 7 days): 3.68 mmol/L
- Plasma Na ([5]; Dapa 3 mg/kg p.o. QD 7 days): 137.6 mmol/L
- Plasma Urea ([5]; Dapa 3 mg/kg p.o. QD 7 days): 4.34 mmol/L
- Water and food intake compared to vehicle [6]: increased

SMILES: COc1nc(C)cnc1NS(=O)(=O)c1cccnc1-c1ccc(-c2nnco2)cc1 [Zibo, N-(3-methoxy-5-methylpyrazin-2-yl)-2-[4-(1,3,4-oxadiazol-2-yl)phenyl]pyridine-3-sulfonamide]
- 24-hour urine volume and urea excretion compared to vehicle [1]: No difference
- Urine Na, K and creatinine compared to vehicle [1]: No change
- Urine glucose excretion [1]: no effect
- Urine Creatinine ([1]; Zibo 30 mg/kg p.o. QD): 71.33 µmol
- Urine K ([1]; Zibo 30 mg/kg p.o. QD): 1.27 mmol
- Urine Na ([1]; Zibo 30 mg/kg p.o. QD): 10.67 mmol
- Urine Urea ([1]; Zibo 30 mg/kg p.o. QD): 4.61 mmol
- Urine volume ([1]; Zibo 30 mg/kg p.o. QD): 19.08 mL
- Urine Creatinine ([1]; Zibo 100 mg/kg p.o. QD): 68.18 µmol
- Urine K ([1]; Zibo 100 mg/kg p.o. QD): 1.16 mmol
- Urine Na ([1]; Zibo 100 mg/kg p.o. QD): 10.03 mmol
- Urine Urea ([1]; Zibo 100 mg/kg p.o. QD): 4.11 mmol
- Urine volume ([1]; Zibo 100 mg/kg p.o. QD): 19.08 mL
- Changes in body weight over the entire study, Difference ([2]; Zibo 30 mg/kg vs Vehicle): 0.01
- Changes in body weight over the entire study, Difference ([2]; Zibo 100 mg/kg vs Vehicle): 0.01
- Prevention of BW gain compared to vehicle [2]: did not
- concentration at 24 h ([3]; in vivo, 30 mg/kg, Zibotentan blood concentration, Zibo 30 mg/kg p.o. QD 7 days, 24 hr post last dose): 22.9 µM
- concentration at 4 h ([3]; in vivo, 30 mg/kg, Zibotentan blood concentration, Zibo 30 mg/kg p.o. QD): 61.1 µM
- concentration at 24 h ([3]; in vivo, 30 mg/kg, Zibotentan blood concentration, Zibo 30 mg/kg p.o. QD, 24 hr post first dose): 7.8 µM
- concentration at 24 h ([3]; in vivo, 100 mg/kg, Zibotentan blood concentration, Zibo 100 mg/kg p.o. QD 7 days, 24 hr post last dose): 136 µM
- concentration at 4 h ([3]; in vivo, 100 mg/kg, Zibotentan blood concentration, Zibo 100 mg/kg p.o. QD): 161 µM
- concentration at 24 h ([3]; in vivo, 100 mg/kg, Zibotentan blood concentration, Zibo 100 mg/kg p.o. QD, 24 hr post first dose): 63.9 µM
- Heart weight ([4]; Zibo 30 mg/kg p.o. QD 7 days): 0.96 g
- Heart/tibia length ([4]; Zibo 30 mg/kg p.o. QD 7 days): 24.75 mg/mm
- Kidney weight ([4]; Zibo 30 mg/kg p.o. QD 7 days): 2.05 g
- Kidney/tibia length ([4]; Zibo 30 mg/kg p.o. QD 7 days): 52.49 mg/mm
- Heart weight compared to vehicle, with or without normalizing to tibia length ([4]; Zibo 30 mg/kg, seven days): increased
- Heart weight ([4]; Zibo 100 mg/kg p.o. QD 7 days): 0.93 g
- Heart/tibia length ([4]; Zibo 100 mg/kg p.o. QD 7 days): 23.82 mg/mm
- Kidney weight ([4]; Zibo 100 mg/kg p.o. QD 7 days): 1.90 g
- Kidney/tibia length ([4]; Zibo 100 mg/kg p.o. QD 7 days): 48.20 mg/mm
- Plasma Na, K, glucose, urea concentrations compared to vehicle [5]: unaltered
- Plasma Creatinine ([5]; Zibo 30 mg/kg p.o. QD 7 days): 17.58 µM
- Plasma Glucose ([5]; Zibo 30 mg/kg p.o. QD 7 days): 8.96 mmol/L
- Plasma K ([5]; Zibo 30 mg/kg p.o. QD 7 days): 4.17 mmol/L
- Plasma Na ([5]; Zibo 30 mg/kg p.o. QD 7 days): 139.1 mmol/L
- Plasma Urea ([5]; Zibo 30 mg/kg p.o. QD 7 days): 4.47 mmol/L
- Plasma creatinine compared to vehicle ([5]; Zibo 100 mg/kg monotreatment or in combination with Dapa 3 mg/kg, p<0.05): significantly increase
- Plasma Creatinine ([5]; Zibo 100 mg/kg p.o. QD 7 days): 18.08 µM
- Plasma Glucose ([5]; Zibo 100 mg/kg p.o. QD 7 days): 8.73 mmol/L
- Plasma K ([5]; Zibo 100 mg/kg p.o. QD 7 days): 4.13 mmol/L
- Plasma Na ([5]; Zibo 100 mg/kg p.o. QD 7 days): 138.4 mmol/L
- Plasma Urea ([5]; Zibo 100 mg/kg p.o. QD 7 days): 4.25 mmol/L
- Water and food intake compared to vehicle [6]: unchanged
